Data reported in patent US20040014678A1, “Prevention of beta-amyloid neurotoxicity by blockade of the ubiquitin-proteasome proteolytoc pathway” (priority 2003, published 2004).
“Also recorded” adds a separate entry of the source. Residues, ends and D or L forms follow the SMILES beside them.

Columns and labels:
rat cortical neurons [1] = test: cells; format: cell-based
Experimental: FIGS. 3A and 3B show inhibition of β-amyloid (β-am) neurotoxicity by lactacystin (lacta) and Leu-Ala. Cell viability is assessed using the MTT assay. The conversion of tetrazolium salts is measured using a spectrophotometer and expressed as absorbance in arbitrary units. […] Lacta inhibits the neurotoxic effect cause by β-am in a concentration-dependent manner (•[formula]•).
(§1) Hemispheres were separated, and meninges were carefully removed.
Neurons plated at a density of 0.4×10^6 in 48-multiwell plates were exposed for the appropriate times to the test agents. MTT reduction was used to measure mitochondrial activity as an index of cell viability. The reaction was started by adding 0.4 mg/ml MTT in a PBS solution to the neurons. After 16 h of incubation at 37° C., 100 μl of pure dimethyl sulfoxide is added to each well. After an additional 12 h of incubation, absorbance values at 570 nm were determined with an automatic microplate reader, using 630 nm as a reference wavelength. Experiments were done in 48-multiwell plates allowing eight samples for each experimental point. Experiments were repeated at least three times.

[2] = tested on: ubiquitination of neuronal proteins; test: Western blot of ubiquitinated neuronal proteins; format: cell-based, rat; conditions: for ubiquitinated proteins, agent alone: 72 h
Experimental: Lactacystin alone (lane 3), by blocking proteasome activity, causes an accumulation of ubiquitinated protein, although to a lesser extent than β-amyloid.
as §1
Western blot analysis was performed as previously described (Favit et al., 1998) with the following modifications. Proteins were extracted from neuronal pellets in a PBS solution containing 1 mg/ml leupeptin, 1 mg/ml pepstatin, 1 mg/ml chymostatin, 1 mg/ml antipain, and 0.2 mM phenylmethylsulfonyl fluoride. (Vannucci et al. (1998)). The crude homogenate was balanced with sample buffer containing 0.5 M Tris-HCl (pH 6.8), 10% glycerol, 2% sodium dodecyl sulfate, and 0.5% 2-mercaptoethanol to a final volume of 20 μl with a total protein concentration of […]. Sodium dodecyl sulfate-polyacrylamide gel electrophoresis was carried out in a 4-20% acrylamide gradient gel 1.5 mm thick. (Novex, San Diego, Calif., U.S.A.). Twenty micrograms per lane of protein of the crude homogenate was electrophoresed and transferred overnight onto a nitrocellulose membrane (Schleicher & Schuell). The membrane was blocked in 1% bovine serum albumin in 95% Tris-buffered saline for 1 h. Immunodetection of ubiquitin was obtained by exposing the membrane to an anti-ubaiqtin polyclonal primary antibody at 1:1,000 dilution for 1 h. Blots were then incubated with an anti-mouse alkaline phosphatase-conjugated secondary antibody for 1 h. Finally, the nitrocellulose was stained with a solution containing 0.1 M Tris-HCl (pH 9.6), 0.001 M MgCl2, 1% nitro blue terrazolium (Pierce), and 1% 5-bromo-4chloro-3-indolyl phosphate toluidine salt (Pierce). All reactions were carried out at room temperature. At least three independent sets of experiments were conducted.
Blocking ubiquitination with Leu-Ala or inhibiting proteasome activity with lactacystin prevent β-amyloid-induced neurotoxicity. […] Therefore, the ability of β-amyloid to cause ubiquitination of neuronal proteins was tested. Neurons were incubated with β-amyloid for 72 h in the presence of 50 nM lactacystin or 2 mM Leu-Ala and harvested. […] As a consequence of this, the target proteins are not degraded by the proteasome.

rat cortical neurons [3] = test: Morphologic analysis of β-amyloid-induced cortical neuron damage (phase-contrast); conditions: for neuronal viability, agent alone: without β-amyloid
Experimental: FIGS. 1A, 1B, 1C and 1D provide morphologic analysis of β-amyloid-induced cortical neuron damage shown in representative phase-contrast images of cortical neurons at 13 days in vitro. Cells are treated for 5 days with vehicle (FIG. 1A), 50 nM lactacystin (FIG. 1B), 20 μM β-amyloid (FIG. 1C), or 20 μM β-amyloid+50 nM lactacystin (FIG. 1D).
(§2) Neurons were prepared from 17-day-old rat fetuses, according to a previously published protocol (Hampson et al. (1998)). In brief, the fetuses were decapitated, the brains were dissected and placed in phosphate-buffered saline (PBS) containing 4.5 g/L glucose. Hemispheres were separated, and meninges were carefully removed. Cortical tissues were freed from subcortical structures and cut into small fragments. Tissues were incubated with papain activated with cysteine for 10 min at 37° C. Papain was neutralized with a solution of ovomucoid and bovine serum albumin. Finally, tissues were mechanically dissociated until a single-cell suspension was obtained. Cells were plated in poly-D-lysine-coated 3.5-cm-diameter Petri dishes, 48-multiwell plates, or tissue culture flasks.

rat cortical neurons [4] = tested on: rat cortical neurons
Experimental: Cells are treated with the agents indicated in the respective heading (e.g. LACTA for lactacystin) and then stained with fluorescein and propidium. […] Data are mean±SE (bars) values.
as §2
Viability of cortical neurons was assessed with a propidium iodide exclusion test and fluorescein diacetate incorporation assessment, according to a previously published protocol. (Favit et al. (1992)). Rat cortical neurons seeded on 3.5-cm-diameter dishes were treated, washed with PBS, and incubated with a PBS solution containing 36 μM fluroescein diacetate and 7 μM propidium iodide for 3 min at room temperature. Cell viability was assessed by counting 100 cells per microscope field (using a 20× lens) for the number of fluorescein-labeled neurons versus propidium-positive cells. Experiments were conducted in duplicate and repeated at least three times. Statistical validity was assessed by ANOVA followed by a post hoc test.

For `CC(C)C[C@H](NC(=O)[C@H](C)N)C(=O)O` [Ala-Leu] (H-Ala-Leu-OH), the “reduction of β-amyloid toxicity” value (rat cortical neurons [1]; reverse dipeptide, data not shown) was “does not cause any reduction of β-amyloid toxicity”.
With `CC(C)C[C@H](N)C(=O)N[C@@H](C)C(=O)O` [Leu-Ala, leucine-alanine dipeptide] (H-Leu-Ala-OH) the “cell damage caused by β-am” value (rat cortical neurons [1]; 2 mM Leu-Ala with β-am) was “clear reduction of the cell damage caused by β-am”, the “ubiquitinated proteins, agent alone” value [2] was “does not affect protein ubiquitination in control cells” and the β-amyloid-induced ubiquitination ([2]; β-amyloid 72 h with 2 mM Leu-Ala) was “markedly reduced; also recorded: completely prevented”. For the same molecule, the “neuronal viability, agent alone” value (rat cortical neurons [3]) was “did not affect neuronal viability”.
For `CC(=O)N[C@@H](CSC(=O)[C@]1([C@@H](O)C(C)C)NC(=O)[C@H](C)[C@@H]1O)C(=O)O` [lactacystin], the “cell damage caused by β-am” value (rat cortical neurons [1]; 50 nM lacta with β-am) was “clear reduction of the cell damage caused by β-am”, the EC50 (rat cortical neurons [1]; Rattus norvegicus, Cortical neurone, in presence of β-amyloid, read-out: apparent EC50 for blocking β-amyloid toxicity) was 30 nM and the “prevention of toxic effect of β-amyloid at the highest concentration tested” value (rat cortical neurons [1]; highest concentration tested) was “almost entirely prevents the toxic effect of β-amyloid”. For the same molecule, the “concentration at which the protective effect is already statistically significant” value (rat cortical neurons [1]; in presence of β-amyloid) was 25 nM, the “concentration at which the protective effect reaches an apparent plateau” value (rat cortical neurons [1]; in presence of β-amyloid) was 500 nM and the “ubiquitinated proteins, agent alone” value [2] was “increases the presence of ubiquitinated protein”. The β-amyloid-induced ubiquitination ([2]; β-amyloid 72 h with 50 nM lactacystin) was “not affected”, the β-amyloid-induced propidium staining (rat cortical neurons [4]; β-amyloid combined with 50 nM lactacystin) was “reversed to near control levels” and the “β-amyloid-induced morphologic degeneration of neurons” value (rat cortical neurons [3]; 50 nM lactacystin with 20 μM β-amyloid, 5 days) was “prevented β-amyloid-induced morphologic degeneration of neurons”. The “neuronal viability, agent alone” value (rat cortical neurons [3]) was “did not affect neuronal viability”.
With “β-Amyloid 1-40 [β-amyloid fragment 1-40]” the “viable cells (MTT)” value (rat cortical neurons [1]) was “greatly decreases viable cells”, the “ubiquitinated proteins, agent alone” value [2] was “marked increase of ubiquitination of multiple proteins” and the fluorescein sequestration (rat cortical neurons [4]) was “not able to sequester fluorescein”. For the same molecule, the “number of viable cells (cell counts)” value (rat cortical neurons [4]) was “significantly reduces the number of viable cells” and the propidium iodide staining (rat cortical neurons [4]) was “clear staining with propidium iodide”.
